From ChEMBL document CHEMBL6120947, “Synthesis and Antiosteoporotic Characterization of Diselenyl Maleimides: Discovery of a Potent Agent for the Treatment of Osteoporosis by Targeting RANKL” (J Med Chem, 2024)
Activity calls are given as the source filed them. The calls are words filed in the database; no cut-off is given here.

How the values were obtained:
RAW264.7 [1] = assay: Cytotoxicity against mouse RAW264.7 cells assessed as decrease in cell viability at 1 uM incubated for 48 hrs by MTT assay; type: toxicity, cell-based; conditions: raw264.7, 48 h
RAW264.7 [2] = assay: Inhibition of osteoclastogenesis in RANKL-induced osteoclast differentiation in mouse RAW264.7 cells incubated for 4 days by TRAP staining based analysis; type: functional, cell-based; conditions: time 4.0 day

SMILES: Cc1ccc([Se]C2=C([Se]c3ccc(C)cc3)C(=O)N(c3ccccc3)C2=O)cc1
- Activity (RAW264.7 [1]): Toxic
- inhibition (RAW264.7 [2]): Active

SMILES: Cc1ccccc1[Se]C1=C([Se]c2ccccc2C)C(=O)N(Cc2ccccc2)C1=O
- inhibition (RAW264.7 [2]): inactive

SMILES: COc1ncccc1[Se]C1=C([Se]c2cccnc2OC)C(=O)N(c2ccccc2)C1=O
- Activity (RAW264.7 [1]): Toxic
- inhibition (RAW264.7 [2]): inactive

SMILES: O=C1C=C([Se]c2ccccc2)C(=O)N1Cc1ccccc1
- inhibition (RAW264.7 [2]): inactive

SMILES: O=C1C([Se]c2ccccc2)=C([Se]c2ccccc2)C(=O)N1c1ccccc1
- inhibition (RAW264.7 [2]): inactive

SMILES: O=C1C([Se]c2ccccc2)=C([Se]c2ccccc2)C(=O)N1Cc1ccc(I)cc1
- inhibition (RAW264.7 [2]): inactive

SMILES: O=C1C(Sc2ccccc2)=C(Sc2ccccc2)C(=O)N1Cc1ccccc1
- inhibition (RAW264.7 [2]): inactive

SMILES: COc1ccc(CN2C(=O)C([Se]c3ccccc3)=C([Se]c3ccccc3)C2=O)cc1
- inhibition (RAW264.7 [2]): inactive

SMILES: O=C1C([Se]c2ccccc2)=C([Se]c2ccccc2)C(=O)N1Cc1ccc(F)cc1
- inhibition (RAW264.7 [2]): inactive

SMILES: O=C1C([Se]c2ccccc2)=C([Se]c2ccccc2)C(=O)N1Cc1ccccc1Br
- Activity (RAW264.7 [1]): Toxic
- inhibition (RAW264.7 [2]): inactive

SMILES: CC[Se]C1=C([Se]CC)C(=O)N(c2ccccc2)C1=O
- inhibition (RAW264.7 [2]): inactive

SMILES: O=C1C([Se]c2ccccc2)=C([Se]c2ccccc2)C(=O)N1Cc1ccc(Cl)cc1
- inhibition (RAW264.7 [2]): inactive

SMILES: CC(C)(C)N1C(=O)C([Se]c2ccccc2)=C([Se]c2ccccc2)C1=O
- inhibition (RAW264.7 [2]): inactive

SMILES: O=C1C([Se]c2ccccc2Cl)=C([Se]c2ccccc2Cl)C(=O)N1Cc1ccccc1
- inhibition (RAW264.7 [2]): inactive

SMILES: COC(=O)CCN1C(=O)C([Se]c2ccccc2)=C([Se]c2ccccc2)C1=O
- inhibition (RAW264.7 [2]): inactive

SMILES: Cc1ccccc1CN1C(=O)C([Se]c2ccccc2)=C([Se]c2ccccc2)C1=O
- inhibition (RAW264.7 [2]): inactive

SMILES: Cc1ccc(CN2C(=O)C([Se]c3ccccc3)=C([Se]c3ccccc3)C2=O)cc1
- Activity (RAW264.7 [1]): Toxic
- inhibition (RAW264.7 [2]): inactive

SMILES: O=C1C([Se]c2ccccc2)=C([Se]c2ccccc2)C(=O)N1Cc1cccc(Br)c1
- inhibition (RAW264.7 [2]): inactive

SMILES: O=C1C([Se]c2ccccc2)=C([Se]c2ccccc2)C(=O)N1Cc1cccc(Cl)c1
- Activity (RAW264.7 [1]): Toxic
- inhibition (RAW264.7 [2]): inactive

SMILES: C[Se]C1=C([Se]C)C(=O)N(Cc2ccccc2)C1=O
- inhibition (RAW264.7 [2]): inactive

SMILES: O=C1C([Se]c2ccccc2)=C([Se]c2ccccc2)C(=O)N1c1ccc(Br)cc1
- inhibition (RAW264.7 [2]): inactive

SMILES: O=C1C([Se]c2cccc([N+](=O)[O-])c2)=C([Se]c2cccc([N+](=O)[O-])c2)C(=O)N1Cc1ccccc1
- inhibition (RAW264.7 [2]): inactive

SMILES: O=C1C([Se]c2ccccc2Cl)=C([Se]c2ccccc2Cl)C(=O)N1c1ccccc1
- inhibition (RAW264.7 [2]): Active

SMILES: O=C1C([Se]c2ccccc2)=C([Se]c2ccccc2)C(=O)N1Cc1ccccc1Cl
- inhibition (RAW264.7 [2]): inactive

SMILES: O=C1C([Se]c2cccc(F)c2)=C([Se]c2cccc(F)c2)C(=O)N1Cc1ccccc1
- inhibition (RAW264.7 [2]): inactive

SMILES: CC(=O)c1ccc(N2C(=O)C([Se]c3ccccc3)=C([Se]c3ccccc3)C2=O)cc1
- inhibition (RAW264.7 [2]): Active

SMILES: O=C1C([Se]c2ccc(Br)cc2)=C([Se]c2ccc(Br)cc2)C(=O)N1c1ccccc1
- Activity (RAW264.7 [1]): Toxic
- inhibition (RAW264.7 [2]): inactive

SMILES: O=C1C([Se]c2cccc(Br)c2)=C([Se]c2cccc(Br)c2)C(=O)N1Cc1ccccc1
- inhibition (RAW264.7 [2]): inactive

SMILES: COc1ccc([Se]C2=C([Se]c3ccc(OC)cc3)C(=O)N(Cc3ccccc3)C2=O)cc1
- inhibition (RAW264.7 [2]): inactive

SMILES: O=C1C([Se]c2cccc(Cl)c2)=C([Se]c2cccc(Cl)c2)C(=O)N1Cc1ccccc1
- inhibition (RAW264.7 [2]): inactive

SMILES: Cc1cccc(CN2C(=O)C([Se]c3ccccc3)=C([Se]c3ccccc3)C2=O)c1
- Activity (RAW264.7 [1]): Toxic
- inhibition (RAW264.7 [2]): inactive

SMILES: O=C1C=CC(=O)N1Cc1ccccc1
- inhibition (RAW264.7 [2]): inactive

SMILES: N#Cc1ccc(CN2C(=O)C([Se]c3ccccc3)=C([Se]c3ccccc3)C2=O)cc1
- inhibition (RAW264.7 [2]): inactive

SMILES: O=C1NC(=O)C([Se]c2ccccc2)=C1[Se]c1ccccc1
- inhibition (RAW264.7 [2]): Active

SMILES: N#Cc1ccc([Se]C2=C([Se]c3ccc(C#N)cc3)C(=O)N(Cc3ccccc3)C2=O)cc1
- inhibition (RAW264.7 [2]): inactive

SMILES: N#Cc1cccc([Se]C2=C([Se]c3cccc(C#N)c3)C(=O)N(c3ccccc3)C2=O)c1
- Activity (RAW264.7 [1]): Toxic
- inhibition (RAW264.7 [2]): inactive

SMILES: O=C1C([Se]c2ccccc2Br)=C([Se]c2ccccc2Br)C(=O)N1c1ccccc1
- Activity (RAW264.7 [1]): Toxic
- inhibition (RAW264.7 [2]): inactive

SMILES: COc1ccccc1[Se]C1=C([Se]c2ccccc2OC)C(=O)N(Cc2ccccc2)C1=O
- inhibition (RAW264.7 [2]): inactive

SMILES: Cc1cccc([Se]C2=C([Se]c3cccc(C)c3)C(=O)N(Cc3ccccc3)C2=O)c1
- inhibition (RAW264.7 [2]): inactive

SMILES: CCC[Se]C1=C([Se]CCC)C(=O)N(c2ccccc2)C1=O
- inhibition (RAW264.7 [2]): inactive

SMILES: CCN1C(=O)C([Se]c2ccccc2)=C([Se]c2ccccc2)C1=O
- inhibition (RAW264.7 [2]): inactive

SMILES: O=C1C([Se]c2ccc(Cl)cc2)=C([Se]c2ccc(Cl)cc2)C(=O)N1Cc1ccccc1
- inhibition (RAW264.7 [2]): inactive

SMILES: Cc1cccc([Se]C2=C([Se]c3cccc(C)c3)C(=O)N(c3ccccc3)C2=O)c1
- inhibition (RAW264.7 [2]): Active

SMILES: O=C1C([Se]c2ccccc2)=C([Se]c2ccccc2)C(=O)N1c1c(Cl)cc(Cl)cc1Cl
- inhibition (RAW264.7 [2]): inactive

SMILES: O=C1C([Se]c2ccccc2)=C([Se]c2ccccc2)C(=O)N1Cc1cccc(F)c1
- inhibition (RAW264.7 [2]): inactive

SMILES: CCc1ccc(N2C(=O)C([Se]c3ccccc3)=C([Se]c3ccccc3)C2=O)cc1
- Activity (RAW264.7 [1]): Toxic
- inhibition (RAW264.7 [2]): Active

SMILES: CN1C(=O)C([Se]c2ccccc2)=C([Se]c2ccccc2)C1=O
- inhibition (RAW264.7 [2]): inactive

SMILES: O=C1C([Se]c2ccccc2)=C([Se]c2ccccc2)C(=O)N1C1CCCCC1
- inhibition (RAW264.7 [2]): inactive
